Data from US5294611A, “Angiotensin II receptor blocking 2,3,6 substituted quinazolinones” (American Cyanamid Company, priority 1993, dated 1994).
Read-outs that look alike come from different tables or passages of the source.

Test system: Angiotensin II (AII) vasopressor response
Assay: AII Challenge: antagonism of angiotensin II vasopressor response in conscious spontaneously hypertensive rats
Assay type: in vivo, rat (male okamoto-Aoki SHR)
Conditions: for inhibition in vivo at 1 mg/kg / inhibition in vivo at 3 mg/kg / inhibition in vivo at 5 mg/kg: Rattus norvegicus; for inhibition in vivo at 1 mg/kg / inhibition in vivo at 3 mg/kg: iv; for inhibition in vivo at 3 mg/kg / inhibition in vivo at 5 mg/kg: read-out: Inhibition; for inhibition in vivo at 5 mg/kg: po; for Change: single SHR
In short: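 Read-out is the systolic pressure increase (mmHg) to i.v. angiotensin II, 0.05 and 0.1 ug/kg, compared pre- and post-dose in restrained, conscious spontaneously hypertensive male rats. Compounds administered orally, i.p. or i.v.; arterial cannula inserted under local anaesthesia.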

## CCCCc1nc2ccc([C@H]3[C@@H]4C(=O)CC[C@@H]4ON3C)cc2c(=O)n1Cc1ccc(-c2ccccc2-c2nnn[nH]2)cc1 (relative stereo) [Example 48]
0.5 h, SHR n=2, 1 mg/kg I.V., AII 0.05 mcg/kg IV, 30 min post dose
  inhibition in vivo at 1 mg/kg: 66%
0.5 h, SHR n=2, 1 mg/kg I.V., AII 0.1 mcg/kg IV, 30 min post dose
  inhibition in vivo at 1 mg/kg: 52%
0.5 h, SHR n=2, 3 mg/kg I.V., AII 0.05 mcg/kg IV, 30 min post dose
  inhibition in vivo at 3 mg/kg: 93%
0.5 h, SHR n=2, 3 mg/kg I.V., AII 0.1 mcg/kg IV, 30 min post dose
  inhibition in vivo at 3 mg/kg: 94%
1 h, SHR n=2, 1 mg/kg I.V., AII 0.05 mcg/kg IV, 60 min post dose
  inhibition in vivo at 1 mg/kg: 55%
1 h, SHR n=2, 1 mg/kg I.V., AII 0.1 mcg/kg IV, 60 min post dose
  inhibition in vivo at 1 mg/kg: 71%
1 h, SHR n=2, 3 mg/kg I.V., AII 0.05 mcg/kg IV, 60 min post dose
  inhibition in vivo at 3 mg/kg: 100%
1 h, SHR n=2, 3 mg/kg I.V., AII 0.1 mcg/kg IV, 60 min post dose
  inhibition in vivo at 3 mg/kg: 86%
2 h, SHR n=2, 1 mg/kg I.V., AII 0.05 mcg/kg IV, 120 min post dose
  inhibition in vivo at 1 mg/kg: 49%
2 h, SHR n=2, 1 mg/kg I.V., AII 0.1 mcg/kg IV, 120 min post dose
  inhibition in vivo at 1 mg/kg: 31%
2 h, SHR n=2, 3 mg/kg I.V., AII 0.05 mcg/kg IV, 120 min post dose
  inhibition in vivo at 3 mg/kg: 89%
2 h
  inhibition in vivo at 3 mg/kg: 82%
3 h, SHR n=2, 1 mg/kg I.V., AII 0.05 mcg/kg IV, 180 min post dose
  inhibition in vivo at 1 mg/kg: 38%
3 h, SHR n=2, 1 mg/kg I.V., AII 0.1 mcg/kg IV, 180 min post dose
  inhibition in vivo at 1 mg/kg: 38%
3 h, SHR n=2, 3 mg/kg I.V., AII 0.05 mcg/kg IV, 180 min post dose
  inhibition in vivo at 3 mg/kg: 60%
3 h, SHR n=2, 3 mg/kg I.V., AII 0.1 mcg/kg IV, 180 min post dose
  inhibition in vivo at 3 mg/kg: 47%
4 h, SHR n=2, 1 mg/kg I.V., AII 0.05 mcg/kg IV, 240 min post dose
  inhibition in vivo at 1 mg/kg: 26%
4 h, SHR n=2, 1 mg/kg I.V., AII 0.1 mcg/kg IV, 240 min post dose
  inhibition in vivo at 1 mg/kg: 32%
4 h, SHR n=2, 3 mg/kg I.V., AII 0.05 mcg/kg IV, 240 min post dose
  inhibition in vivo at 3 mg/kg: 60%
4 h, SHR n=2, 3 mg/kg I.V., AII 0.1 mcg/kg IV, 240 min post dose
  inhibition in vivo at 3 mg/kg: 47%
5 h, SHR n=2, 1 mg/kg I.V., AII 0.05 mcg/kg IV, 300 min post dose
  inhibition in vivo at 1 mg/kg: 18%
5 h, SHR n=2, 1 mg/kg I.V., AII 0.1 mcg/kg IV, 300 min post dose
  inhibition in vivo at 1 mg/kg: 30%
5 h, SHR n=2, 3 mg/kg I.V., AII 0.05 mcg/kg IV, 300 min post dose
  inhibition in vivo at 3 mg/kg: 47%
5 h, SHR n=2, 3 mg/kg I.V., AII 0.1 mcg/kg IV, 300 min post dose
  inhibition in vivo at 3 mg/kg: 35%
[…], SHR n=2, 1 mg/kg I.V., AII 0.05 mcg/kg IV, 90 min post dose
  inhibition in vivo at 1 mg/kg: 40%
[…], SHR n=2, 1 mg/kg I.V., AII 0.1 mcg/kg IV, 90 min post dose
  inhibition in vivo at 1 mg/kg: 52%
[…], SHR n=2, 3 mg/kg I.V., AII 0.05 mcg/kg IV, 90 min post dose
  inhibition in vivo at 3 mg/kg: 87%
[…], SHR n=2, 3 mg/kg I.V., AII 0.1 mcg/kg IV, 90 min post dose
  inhibition in vivo at 3 mg/kg: 76%
0.5 h, SHR n=2, 5 mg/kg P.O., AII 0.05 mcg/kg IV, 30 min post dose
  inhibition in vivo at 5 mg/kg: 76%
0.5 h, SHR n=2, 5 mg/kg P.O., AII 0.1 mcg/kg IV, 30 min post dose
  inhibition in vivo at 5 mg/kg: 66%
1 h, SHR n=2, 5 mg/kg P.O., AII 0.05 mcg/kg IV, 60 min post dose
  inhibition in vivo at 5 mg/kg: 76%
1 h, SHR n=2, 5 mg/kg P.O., AII 0.1 mcg/kg IV, 60 min post dose
  inhibition in vivo at 5 mg/kg: 74%
2 h, SHR n=2, 5 mg/kg P.O., AII 0.05 mcg/kg IV, 120 min post dose
  inhibition in vivo at 5 mg/kg: 90%
2 h, SHR n=2, 5 mg/kg P.O., AII 0.1 mcg/kg IV, 120 min post dose
  inhibition in vivo at 5 mg/kg: 89%
3 h, SHR n=2, 5 mg/kg P.O., AII 0.1 mcg/kg IV, 180 min post dose
  inhibition in vivo at 5 mg/kg: 74%
3 h
  inhibition in vivo at 5 mg/kg: 82%
4 h, SHR n=2, 5 mg/kg P.O., AII 0.05 mcg/kg IV, 240 min post dose
  inhibition in vivo at 5 mg/kg: 94%
4 h, SHR n=2, 5 mg/kg P.O., AII 0.1 mcg/kg IV, 240 min post dose
  inhibition in vivo at 5 mg/kg: 79%
5 h, SHR n=2, 5 mg/kg P.O., AII 0.05 mcg/kg IV, 300 min post dose
  inhibition in vivo at 5 mg/kg: 93%
5 h, SHR n=2, 5 mg/kg P.O., AII 0.1 mcg/kg IV, 300 min post dose
  inhibition in vivo at 5 mg/kg: 79%
[…], SHR n=2, 5 mg/kg P.O., AII 0.05 mcg/kg IV, 90 min post dose
  inhibition in vivo at 5 mg/kg: 79%
[…], SHR n=2, 5 mg/kg P.O., AII 0.1 mcg/kg IV, 90 min post dose
  inhibition in vivo at 5 mg/kg: 85%
SHR n=2, 1 mg/kg I.V., AII 0.05 mcg/kg IV, 30 min post dose
  Average Change: 15 mmHg
SHR n=2, 1 mg/kg I.V., AII 0.05 mcg/kg IV, 60 min post dose
  Average Change: 20 mmHg
SHR n=2, 1 mg/kg I.V., AII 0.05 mcg/kg IV, 90 min post dose
  Average Change: 26.5 mmHg
SHR n=2, 1 mg/kg I.V., AII 0.05 mcg/kg IV, 120 min post dose
  Average Change: 22.5 mmHg
SHR n=2, 1 mg/kg I.V., AII 0.05 mcg/kg IV, 180 min post dose
  Average Change: 27.5 mmHg
SHR n=2, 1 mg/kg I.V., AII 0.05 mcg/kg IV, 240 min post dose
  Average Change: 32.5 mmHg
SHR n=2, 1 mg/kg I.V., AII 0.05 mcg/kg IV, 300 min post dose
  Average Change: 36 mmHg
SHR n=2, 1 mg/kg I.V., AII 0.1 mcg/kg IV, 30 min post dose
  Average Change: 25 mmHg
SHR n=2, 1 mg/kg I.V., AII 0.1 mcg/kg IV, 60 min post dose
  Average Change: 15 mmHg
SHR n=2, 1 mg/kg I.V., AII 0.1 mcg/kg IV, 90 min post dose
  Average Change: 25 mmHg
SHR n=2, 1 mg/kg I.V., AII 0.1 mcg/kg IV, 120 min post dose
  Average Change: 36 mmHg
SHR n=2, 1 mg/kg I.V., AII 0.1 mcg/kg IV, 180 min post dose
  Average Change: 32.5 mmHg
SHR n=2, 1 mg/kg I.V., AII 0.1 mcg/kg IV, 240 min post dose
  Average Change: 35.5 mmHg
SHR n=2, 1 mg/kg I.V., AII 0.1 mcg/kg IV, 300 min post dose
  Average Change: 36.5 mmHg
SHR n=2, 3 mg/kg I.V., AII 0.05 mcg/kg IV, 30 min post dose
  Average Change: 2.5 mmHg
SHR n=2, 3 mg/kg I.V., AII 0.05 mcg/kg IV, 60 min post dose
  Average Change: 0 mmHg
SHR n=2, 3 mg/kg I.V., AII 0.05 mcg/kg IV, 90 min post dose
  Average Change: 5 mmHg
SHR n=2, 3 mg/kg I.V., AII 0.05 mcg/kg IV, 120 min post dose
  Average Change: 4 mmHg
SHR n=2, 3 mg/kg I.V., AII 0.05 mcg/kg IV, 180 min post dose
  Average Change: 15 mmHg
SHR n=2, 3 mg/kg I.V., AII 0.05 mcg/kg IV, 240 min post dose
  Average Change: 15 mmHg
SHR n=2, 3 mg/kg I.V., AII 0.05 mcg/kg IV, 300 min post dose
  Average Change: 20 mmHg
SHR n=2, 3 mg/kg I.V., AII 0.1 mcg/kg IV, 30 min post dose
  Average Change: 2.5 mmHg
SHR n=2, 3 mg/kg I.V., AII 0.1 mcg/kg IV, 60 min post dose
  Average Change: 6 mmHg
SHR n=2, 3 mg/kg I.V., AII 0.1 mcg/kg IV, 90 min post dose
  Average Change: 10 mmHg
SHR n=2, 3 mg/kg I.V., AII 0.1 mcg/kg IV, 120 min post dose
  Average Change: 7.5 mmHg
SHR n=2, 3 mg/kg I.V., AII 0.1 mcg/kg IV, 180 min post dose
  Average Change: 22.5 mmHg
SHR n=2, 3 mg/kg I.V., AII 0.1 mcg/kg IV, 240 min post dose
  Average Change: 22.5 mmHg
SHR n=2, 3 mg/kg I.V., AII 0.1 mcg/kg IV, 300 min post dose
  Average Change: 27.5 mmHg
SHR n=2, 5 mg/kg P.O., AII 0.05 mcg/kg IV, 30 min post dose
  Average Change: 10 mmHg
SHR n=2, 5 mg/kg P.O., AII 0.05 mcg/kg IV, 60 min post dose
  Average Change: 10 mmHg
SHR n=2, 5 mg/kg P.O., AII 0.05 mcg/kg IV, 90 min post dose
  Average Change: 8.5 mmHg
SHR n=2, 5 mg/kg P.O., AII 0.05 mcg/kg IV, 120 min post dose
  Average Change: 4 mmHg
SHR n=2, 5 mg/kg P.O., AII 0.05 mcg/kg IV, 180 min post dose
  Average Change: 7.5 mmHg
SHR n=2, 5 mg/kg P.O., AII 0.05 mcg/kg IV, 240 min post dose
  Average Change: 2.5 mmHg
SHR n=2, 5 mg/kg P.O., AII 0.05 mcg/kg IV, 300 min post dose
  Average Change: 3 mmHg
SHR n=2, 5 mg/kg P.O., AII 0.1 mcg/kg IV, 30 min post dose
  Average Change: 16 mmHg
SHR n=2, 5 mg/kg P.O., AII 0.1 mcg/kg IV, 60 min post dose
  Average Change: 12.5 mmHg
SHR n=2, 5 mg/kg P.O., AII 0.1 mcg/kg IV, 90 min post dose
  Average Change: 7 mmHg
SHR n=2, 5 mg/kg P.O., AII 0.1 mcg/kg IV, 120 min post dose
  Average Change: 5 mmHg
SHR n=2, 5 mg/kg P.O., AII 0.1 mcg/kg IV, 180 min post dose
  Average Change: 12.5 mmHg
SHR n=2, 5 mg/kg P.O., AII 0.1 mcg/kg IV, 240 min post dose
  Average Change: 10 mmHg
SHR n=2, 5 mg/kg P.O., AII 0.1 mcg/kg IV, 300 min post dose
  Average Change: 10 mmHg
1 mg/kg I.V., AII 0.05 mcg/kg IV, 30 min post dose
  Change: 15 mmHg
1 mg/kg I.V., AII 0.05 mcg/kg IV, 60 min post dose
  Change: 20 mmHg
1 mg/kg I.V., AII 0.1 mcg/kg IV, 30 min post dose
  Change: 25 mmHg
1 mg/kg I.V., AII 0.1 mcg/kg IV, 60 min post dose
  Change: 15 mmHg
3 mg/kg I.V., AII 0.05 mcg/kg IV, 60 min post dose
  Change: 0 mmHg
3 mg/kg I.V., AII 0.05 mcg/kg IV, 90 min post dose
  Change: 5 mmHg
3 mg/kg I.V., AII 0.05 mcg/kg IV, 180 min post dose
  Change: 15 mmHg
3 mg/kg I.V., AII 0.05 mcg/kg IV, 240 min post dose
  Change: 15 mmHg
5 mg/kg P.O., AII 0.1 mcg/kg IV, 240 min post dose
  Change: 10 mmHg
5 mg/kg P.O., AII 0.1 mcg/kg IV, 300 min post dose
  Change: 10 mmHg
